Measurements from patent US8252820B2, “1-orthofluorophenyl substituted 1,2,5-thiazolidinedione derivatives as PTP-as inhibitors” (Novartis AG, priority 2005, dated 2012).
Counter-ions that a name gives are not always drawn.

Target: T1, human PTP-1B (Homo sapiens, UniProt P18031)
T1 construct: recombinant human PTP-1B[1-298] or PTP-1B[1-322]
T1 sequence (P18031 1-298 limits assumed): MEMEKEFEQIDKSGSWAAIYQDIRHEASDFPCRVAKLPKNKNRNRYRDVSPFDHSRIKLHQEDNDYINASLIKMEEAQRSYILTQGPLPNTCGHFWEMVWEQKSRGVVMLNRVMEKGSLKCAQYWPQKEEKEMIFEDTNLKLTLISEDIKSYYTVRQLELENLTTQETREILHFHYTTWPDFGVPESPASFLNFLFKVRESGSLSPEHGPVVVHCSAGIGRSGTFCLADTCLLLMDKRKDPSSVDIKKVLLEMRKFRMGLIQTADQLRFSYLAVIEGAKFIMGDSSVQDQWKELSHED
Test: PTP-1B inhibitory activity in vitro (IC50)
Assay type: biochemical
Conditions: inhibitory activity to human PTP-1B
Description: Assessment of human PTP-1B (hPTP-1B) activity in the presence of various agents is determined by measuring the amount of inorganic phosphate released from a phosphopeptide substrate using a 96-well microtiter plate format. The assay (100 μL) is performed in an assay buffer comprised of 50 mM TRIS (pH 7.5), 50 mM NaCl, 3 mM DTT at ambient temperature. The assay is typically performed in the presence of 0.4% dimethyl sulfoxide (DMSO). However, concentrations as high as 10% are used with certain poorly soluble compounds. […] Inorganic phosphate, a product of the enzyme reaction, is quantitiated after 15 min as the green color resulting from complexing with the […] reagent and is determined as an A620 using a Molecular Devices (Sunnyvale, Calif.) SpectraMAX Plus spectrophotometer. […] Activity is defined as the net change in absorbance resulting from the activity of the uninhibited hPTP-1B[1-411] minus that of a tube with acid-inactivated hPTP-1B[1-411]. […] Alternatively, the assessment of human PTP-1B activity in the presence of various agents may be determined by measuring the hydrolysis products of known competing substrates. For example, cleavage of substrate para-nitrophenylphosphate (pNPP) results in the release of the yellow-colored para-nitrophenol (pNP) which can be monitored in real time using a spectrophotometer. […] Absorbance at 405 nm is measured using any standard 384 well plate reader. […]

SMILES	IC50
O=C1CN(c2c(O)c(F)cc(F)c2F)S(=O)(=O)N1 [Example No. 26, 1,1-Dioxo-5-(2,3,6-trifluoro-6-hydroxy-phenyl)-1,2,5]thiadiazolidin-3-one potassium salt]	158 nM
O=C1CN(c2c(O)cc(CC3CCCCC3)cc2F)S(=O)(=O)N1 [Example No. 13, 5-(4-Cyclohexylmethyl-2-fluoro-6-hydroxyphenyl)-1,1-dioxo-1,2,5-thiadiazolidin-3-one]	104 nM
